Results: patent publication US20260108483A1, “METHODS AND COMPOSITIONS FOR PREVENTING THE PROGRESSION OF DIABETIC RETINOPATHY AND RELATED CONDITIONS” (Opus Genetics, Inc., priority 2023, published 2026)

Assays:
Assay type in all cases: in vivo, human
[1] = Clinical study safety: aspartate aminotransferase in subjects' blood; conditions: combined placebo + Compound 1 patients; for Mean Concentration of Aspartate Aminotransferase in Subjects' Blood: Baseline 19.7
Source text: (§1) The study was configured as a placebo-controlled, double-masked, randomized, Phase 2 study in approximately 100 subjects with moderately severe to severe NPDR (diabetic retinopathy severity score [DRSS] Level 47 or 53, see FIG. 1) or mild PDR (DRSS Level 61), evaluating safety and efficacy following administration of Compound 1 twice daily for 24 weeks. The study was configured for a 1:1 randomization (placebo: Compound 1). Randomization was stratified by level of disease severity (NPDR or PDR). Subjects with mild PDR were capped at 20% for each arm. Efficacy evaluations at 12 and/or 24 weeks included DRSS, center-involved diabetic macular edema (DME), moderate PDR or PDR-related adverse events (AEs), best-corrected visual acuity (BCVA), and central subfield thickness (CST). Further experimental procedures and results are described below.
(§2) At the Qualification/Baseline (Visit 2, Day 1): • The subject was randomized into the study. • Study medication was dispensed in accordance with the subjects randomized treatment arm. • Blood samples were drawn pre-dose for baseline levels and on Visit 9 (Week 24) for exploratory biomarker processing (i.e., cytokine and Ref-1 levels) to evaluate pharmacodynamic properties. • Subjects were instructed to administer their study medication (Compound 1 or placebo) each day, with 3 tablets every morning and 2 tablets every evening. Study medication was to be taken at approximately the same time each day and may be taken with or without food.
(§3) At the Second Treatment Visit (Visit 6, Week 12±2 Days), subjects were to return to the site for the following series of safety and efficacy assessments: drug accountability, concomitant medications, urine pregnancy test (only for women of childbearing potential), HR/BP/vital signs, BCVA (ETDRS), DRSS, CST (SD-OCT), blood draw for PK, blood chemistry, blood hematology, biomicroscopy, ophthalmoscopy, IOP, eGFR, and AEs. Following the completion of the assessments, used medication kits were collected for accountability (by counting the number of unused tablets), and new study medication kits dispensed.
(§4) At the Third Treatment Visit (Visit 9, Week 24±2 Days), subjects were to return to the site for the following series of safety and efficacy assessments: drug accountability, concomitant medications, urine pregnancy test (only for women of childbearing potential), physical examination, HR/BP/vital signs, BCVA (ETDRS), DRSS, CST (SD-OCT), blood chemistry, blood hematology, biomicroscopy, ophthalmoscopy, IOP, eGFR, AEs, and blood draw for exploratory biomarkers (ELISA, cytokine panel, comprehensive metabolic panel). Visit 9 (Week 24) was the end of the treatment period. Study medication was returned for accountability (by counting the number of unused tablets), and no further study medication dispensed.
(§5) Safety endpoints include: • Incidence and severity of systemic and ocular AEs, • Change from baseline in body system assessments, • Change from baseline in vital sign measurements, • Change from baseline in clinical laboratory assay results (blood chemistry, hematology), • Change from baseline in intraocular pressure (IOP), • Change from baseline in slit-lamp examination parameters, • Change from baseline in dilated funduscopic examination parameters, • Percent of subjects with a decrease of ≥10 letters in BCVA compared to baseline at Week 12 and Week 24, • Percent of subjects progressing to center-involved DME (eligible for rescue treatment at Week 12 and Week 24), • Percent of subjects with a worsening in DRSS of ≥2 steps in the study eye at Week 12 and Week 24, • Percent of subjects developing anterior segment neovascularization at Week 12 and Week 24, • Percent of subjects rescued (intravitreal anti-VEGF injection, laser PRP, focal/grid laser treatment, or surgery [vitrectomy]) at the discretion of the Investigator at Week 12 and Week 24, and • Change from baseline in estimated glomerular filtration rate (eGFR) at Week 12 and Week 24. […]

[2] = Clinical study safety: glomerular filtration rate; conditions: combined placebo + Compound 1 patients; for Mean Glomerular Filtration Rate: Baseline 92.53
Source text: as §1, §2, §3, §4, §5

[3] = Clinical study safety: diastolic blood pressure; conditions: combined placebo + Compound 1 patients; for Mean Diastolic Blood Pressure: Baseline 80.3
Source text: as §1, §2, §3, §4, §5

CCCCCCCCC/C(=C\C1=C(C)C(=O)C(OC)=C(OC)C1=O)C(=O)O [Compound 1, (E)-2-((4,5-dimethoxy-2-methyl-3,6-dioxocyclohexa-1,4-dien-1-yl)methylene)undecanoic acid]
Mean Concentration of Aspartate Aminotransferase in Subjects' Blood ([1]; Week 12, 53 subjects): 19.2 IU/L | Mean Concentration of Aspartate Aminotransferase in Subjects' Blood ([1]; Week 24, 24 subjects): 17.5 IU/L | change in mean concentration of aspartate aminotransferase relative to Baseline ([1]; week 12, 50 subjects): −0.5 IU/L | reduction in mean concentration of aspartate aminotransferase relative to Baseline ([1]; week 12, 50 subjects): 3% | change in mean concentration of aspartate aminotransferase relative to Baseline ([1]; week 24, 22 subjects): −1.8 IU/L | reduction in mean concentration of aspartate aminotransferase relative to Baseline ([1]; week 24, 22 subjects): 9% | Mean Glomerular Filtration Rate ([2]; Week 12, 52 subjects): 83.85 mL/min/1.73 m^2 | Mean Glomerular Filtration Rate ([2]; Week 24, 24 subjects): 77.7 mL/min/1.73 m^2 | change in mean glomerular filtrate rate relative to Baseline ([2]; week 12, 47 subjects): −2.24 mL/min/1.73 m^2 | reduction in mean glomerular filtrate rate relative to Baseline ([2]; week 12, 47 subjects): 2% | change in mean glomerular filtrate rate relative to Baseline ([2]; week 24, 21 subjects): −9.84 mL/min/1.73 m^2 | reduction in mean glomerular filtrate rate relative to Baseline ([2]; week 24, 21 subjects): 11% | Mean Diastolic Blood Pressure ([3]; Week 12, 62 subjects): 77.1 mmHg | Mean Diastolic Blood Pressure ([3]; Week 24, 27 subjects): 80.4 mmHg | change in mean diastolic blood pressure relative to Baseline ([3]; week 12, 62 subjects): −2.8 mmHg | reduction in mean diastolic blood pressure relative to Baseline ([3]; week 12, 62 subjects): 3% | change in mean diastolic blood pressure relative to Baseline ([3]; week 24, 27 subjects): +1 mmHg | increase in mean diastolic blood pressure relative to Baseline ([3]; week 24, 27 subjects): 1%
